# From patent publication US9688712B2, “Manufacturing method for polyphenol composition” (KAO CORPORATION, priority 2010, dated 2017)
# Where two headings read alike, the source gives them in different places.
# Legend:
# [1] = Measurement of log P value of the hardly water-soluble polyphenols (flask shaking method, JIS Z7260-107)
# Procedure: The log P value is a common logarithm of the partition coefficient between 1-octanol, and water and an index indicative of a hydrophobicity of an organic compound. Larger positive log P value indicates larger hydrophobicity. […] The details are described in Examples.
# [Measurement of Log P Value of the Hardly Water-Soluble Polyphenols]
# First, 1-octanol and distilled water were shaken for 24 hours at 25° C. to equilibrate them. Then, 10 mg of polyphenol was weighed into a glass vial with a cap, into which each of 4 mL of the equilibrated 1-octanol and water was added. The vial was shaken for 4 days at 25° C. […] Log P value is a common logarithm of the partition coefficient between the two phases.
# [2] = cited from earlier work
smiles,measurement,setting,value
Oc1ccc(C=Cc2cc(O)cc(O)c2)cc1 [resveratrol],logP at 4 days,[1]; 1-octanol/water,3.08
"COc1ccc([C@@H]2CC(=O)c3c(O)cc(O[C@@H]4O[C@H](CO[C@@H]5O[C@@H](C)[C@H](O)[C@@H](O)[C@H]5O)[C@@H](O)[C@H](O)[C@H]4O)cc3O2)cc1O [Hesperidin, hesperidin]",solubility in water at 25° C.,[2],0.02 mg/g
COc1cc(/C=C/C(=O)CC(=O)/C=C/c2ccc(O)c(OC)c2)ccc1O [curcumin],logP at 4 days,[1],3.29
